Source: ChEMBL document CHEMBL5230102, “Bicyclic polyprenylated acylphloroglucinols and their derivatives: structural modification, structure-activity relationship, biological activity and mechanism of action” (Eur J Med Chem, 2020)
≈ marks a conversion by molar mass, not a printed value.

Tests used:
Staphylococcus aureus [1] = test: Antibacterial activity against methicillin resistant Staphylococcus aureus USA300; type: functional
HCT-116 = test: Cytotoxicity against human HCT-116 cells assessed as inhibition of cell growth; type: functional, cell-based
SGC-7901 = test: Cytotoxicity against human SGC-7901 cells assessed as inhibition of cell growth; type: functional, cell-based
HeLa = test: Cytotoxicity against human HeLa cells assessed as inhibition of cell growth; type: functional, cell-based
Plasmodium falciparum = test: Antimalarial activity against Plasmodium falciparum; type: functional, organism-based
Staphylococcus aureus [2] = test: Antibacterial activity against Staphylococcus aureus; type: functional, organism-based

| SMILES | MIC (Staphylococcus aureus [1]) [µg/mL] | IC50 (HCT-116) [µg/mL] | IC50 (SGC-7901) [µg/mL] | IC50 (HeLa) [µg/mL] | other results |
| --- | --- | --- | --- | --- | --- |
| C=CC[C@@]12C(=O)C(C(=O)C(C)C)=C(O)[C@@](Cc3ccccc3)(C[C@@H](CC=C(C)C)C1(C)C)C2=O | 1 (≈ 2.16 µM) | – | – | – | – |
| C=CC[C@@]12C[C@@H](CC=C(C)C)C(C)(C)[C@@](CC=C)(C(=O)C(C(=O)C(C)C)=C1O)C2=O | 2 (≈ 4.85 µM) | – | – | – | – |
| CC(C)=CCC/C(C)=C/C[C@]12C(=O)CC(=O)[C@](CC=C(C)C)(C[C@@H](CC=C(C)C)C1(C)C)C2=O | – | 10.9 (≈ 23.4 µM) | 8.5 (≈ 18.2 µM) | 11.7 (≈ 25 µM) | – |
| CC(C)=CC[C@@]12C(=O)C(C(=O)c3ccccc3)=C(O)[C@@](Cc3ccccc3)(C[C@@H](Cc3ccccc3)C1(C)C)C2=O | 4 (≈ 7.32 µM) | – | – | – | – |
| CC(C)=CCC/C(C)=C/C[C@@H]1C[C@@]2(CC=C(C)C)C(=O)CC(=O)[C@](CC=C(C)C)(C2=O)C1(C)C | – | 9.14 (≈ 19.6 µM) | 6.89 (≈ 14.8 µM) | 9.69 (≈ 20.8 µM) | – |
| CC1(C)[C@H](Cc2ccccc2)C[C@@]2(Cc3ccccc3)C(=O)[C@]1(C)C(=O)C(C(=O)c1ccccc1)=C2O | > 30 | – | – | – | – |
| CC(C)=CCC/C(C)=C/C[C@@H]1C[C@@]2(C/C=C(\C)CCC=C(C)C)C(=O)CC(=O)[C@](CC=C(C)C)(C2=O)C1(C)C | – | > 20 | > 20 | > 20 | – |
| CC(C)=CC[C@@H]1C[C@@]2(CC=C(C)C)C(=O)[C@](CC=C(C)C)(C(=O)C(C(=O)C(C)C)=C2O)C1(C)C | 2 (≈ 4.27 µM) | – | – | – | – |
| CC(=O)C1=C(O)[C@@]2(CC=C(C)C)C[C@@H](CC=C(C)C)C(C)(C)[C@@](CC=C(C)C)(C1=O)C2=O | 1 (≈ 2.27 µM) | – | – | – | – |
| C=CC[C@@]12C(=O)C(C(=O)c3ccccc3)=C(O)[C@@](Cc3ccccc3)(C[C@@H](CC=C(C)C)C1(C)C)C2=O | 4 (≈ 8.05 µM) | – | – | – | – |
| CC(C)=CC[C@@]12C[C@@H](Cc3ccccc3)C(C)(C)[C@@](CC=C(C)C)(C(=O)C(C(=O)c3ccccc3)=C1O)C2=O | 4 (≈ 7.62 µM) | – | – | – | – |
| CC(C)=CCC(=O)C1=C(O)[C@@]2(C)C[C@@H](CC=C(C)C)C(C)(C)[C@@](CC=C(C)C)(C1=O)C2=O | 4 (≈ 9.08 µM) | – | – | – | – |
| CC(C)=CC[C@@H]1C[C@@]2(CC=C(C)C)C(=O)[C@](CC=C(C)C)(C(=O)C(C(=O)c3ccccc3)=C2O)C1(C)C [CLUSIANONE] | 1 (≈ 1.99 µM) | – | – | – | – |
| CC(C)=CC[C@@]12C[C@@H](Cc3ccccc3)C(C)(C)[C@@](C)(C(=O)C(C(=O)c3ccccc3)=C1O)C2=O | > 30 | – | – | – | – |
| CC(C)=CC[C@@H]1C[C@]2(CC=C(C)C)C(=O)[C@@](CC=C(C)C)(C(=O)C(C(=O)c3ccccc3)=C2O)C1(C)C | – | 6.87 (≈ 13.7 µM) | 12 (≈ 23.8 µM) | 12 (≈ 23.8 µM) | – |
| CC(C)=CC[C@@H]1C[C@@]2(CC=C(C)C)C(=O)[C@](C)(C(=O)C(C(=O)c3ccccc3)=C2O)C1(C)C | > 30 | – | – | – | – |
| C=CC[C@@]12C(=O)C(C(C)=O)=C(O)[C@@](Cc3ccccc3)(C[C@@H](CC=C(C)C)C1(C)C)C2=O | 1 (≈ 2.3 µM) | – | – | – | – |

| SMILES | MIC (Staphylococcus aureus [1]) [µg/mL] | IC50 (HCT-116) [µg/mL] | IC50 (SGC-7901) [µg/mL] | IC50 (HeLa) [µg/mL] | other results |
| --- | --- | --- | --- | --- | --- |
| CC(C)=CC[C@@H]1C[C@@]2(Cc3ccccc3)C(=O)[C@](CC=C(C)C)(C(=O)C(C(=O)c3ccccc3)=C2O)C1(C)C | 1 (≈ 1.91 µM) | – | – | – | – |
| CC(=O)C1=C(O)[C@@]2(Cc3ccccc3)C[C@@H](CC=C(C)C)C(C)(C)[C@@](CC=C(C)C)(C1=O)C2=O | 0.5 (≈ 1.08 µM) | – | – | – | – |
| CC(C)=CCC/C(C)=C/C[C@]12C[C@@H](CC=C(C)C)C(C)(C)[C@](C/C=C(\C)CCC=C(C)C)(C(=O)CC1=O)C2=O | – | > 20 | > 20 | > 20 | – |
| C=C(C)[C@H](CC=C(C)C)C[C@]12C[C@H](CC=C(C)C)C(C)(C)[C@](CC=C(C)C)(C(=O)C(C(=O)c3ccc(O)c(O)c3)=C1O)C2=O | 7 (≈ 11.6 µM) | – | – | – | – |
| CC(C)=CC[C@@H]1C[C@@]2(Cc3ccccc3)C(=O)[C@](C)(C(=O)C(C(=O)c3ccccc3)=C2O)C1(C)C | > 30 | – | – | – | – |
| CC(C)=CCC/C(C)=C/C[C@]12C[C@@H](CC=C(C)C)C(C)(C)[C@](CC=C(C)C)(C(=O)C(C(=O)c3ccc(O)c(O)c3)=C1O)C2=O | – | 8.6 (≈ 14.3 µM) | 5.48 (≈ 9.09 µM) | 11.7 (≈ 19.4 µM) | – |
| CC(C)=CCC(=O)C1=C(O)[C@@]2(Cc3ccccc3)C[C@@H](CC=C(C)C)C(C)(C)[C@@](CC=C(C)C)(C1=O)C2=O | 2 (≈ 3.87 µM) | – | – | – | – |
| CC(C)=CCC/C(C)=C/C[C@]12C[C@@H](CC=C(C)C)C(C)(C)[C@](CC=C(C)C)(C(=O)CC1=O)C2=O | – | 6.46 (≈ 13.8 µM) | 5.6 (≈ 12 µM) | 6.64 (≈ 14.2 µM) | – |
| C=CC[C@@]12C[C@@H](CC=C(C)C)C(C)(C)[C@@](CC=C)(C(=O)C(C(C)=O)=C1O)C2=O | 2 (≈ 5.2 µM) | – | – | – | – |
| CC(C)=CC[C@@H]1C[C@]2(CC=C(C)C)C(=O)C(C(=O)c3ccccc3)=C3O[C@H](C(C)(C)O)C[C@]3(C2=O)C1(C)C | 4 (≈ 7.71 µM) | – | – | – | – |
| CC(C)=CCC/C(C)=C/C[C@@H]1C[C@]2(CC=C(C)C)C(=O)[C@@](CC=C(C)C)(C(=O)C(C(=O)c3ccc(O)c(O)c3)=C2O)C1(C)C [OBLONGIFOLIN B] | – | > 20 | > 20 | > 20 | – |
| CC(C)=CC[C@H]1C[C@@]2(CC=C(C)C)C(=O)c3c(oc4cc(O)c(O)cc4c3=O)[C@](CC=C(C)C)(C2=O)C1(C)C | – | 5.96 (≈ 11.2 µM) | 7.65 (≈ 14.4 µM) | 7.65 (≈ 14.4 µM) | – |
| CC(C)=CC[C@@H]1C[C@]23C[C@@H](CC=C(C)C)C(C)(C)[C@](CC=C(C)C)(C(=O)C(C(=O)c4ccc(O)c(O)c4)=C2OC1(C)C)C3=O | > 30 | – | – | – | – |
| CC(C)=CCC1=C(O)[C@@]2(C(=O)c3ccccc3)C(=O)[C@](CC=C(C)C)(C[C@H](CC=C(C)C)C2(C)C)C1=O | – | – | – | – | IC50 (Plasmodium falciparum): < 1000 nM; IC50 (Staphylococcus aureus [2]): < 1000 nM |
| CC(C)=CCC/C(C)=C/C[C@@H]1C[C@]2(C/C=C(\C)CCC=C(C)C)C(=O)[C@@](CC=C(C)C)(C(=O)C(C(=O)c3ccc(O)c(O)c3)=C2O)C1(C)C | – | 4.92 (≈ 7.33 µM) | 4.05 (≈ 6.04 µM) | 8.09 (≈ 12.1 µM) | – |
| CC(C)=CCC/C(C)=C/C[C@]12C[C@@H](CC=C(C)C)C(C)(C)[C@](C/C=C(\C)CCC=C(C)C)(C(=O)C(C(=O)c3ccc(O)c(O)c3)=C1O)C2=O [GUTTIFERONE O] | – | > 20 | > 20 | > 20 | – |
| CC(C)=CC[C@H]1C[C@@]2(CC=C(C)C)C(=O)c3c(oc4c(O)c(O)ccc4c3=O)[C@](CC=C(C)C)(C2=O)C1(C)C | – | 2.44 (≈ 4.58 µM) | 4.69 (≈ 8.8 µM) | 4.69 (≈ 8.8 µM) | – |
